The record followed here is patent US8236490B2, “Screening method for compounds that reduce ER stress” (EM Biotecnologia S.A., priority 2007, dated 2012).

SMILES strings stand for the structures.

In this test the test system is DGI-TAUP301L cells (ER stress induced by mutant TAU-P301L protein). The test can be described thus: ER stress reporter (KAR2 UPRE-GFP) screening assay in DGI-TAUP301L yeast cells; fluorescence normalised to cell density. The test is classed as cell-based, Saccharomyces cerevisiae. Conditions: 2% galactose, 2 days at 30° C. Here is the method: Screening was conducted with a DGI-TAUP301L yeast cell expressing the mutant TAU-P301L protein under the control of GAL1 promoter and containing the ER stress sensor reporter plasmid with GFP as reporter, described above in the “Construction of the ER sensor reporter plasmid” section. […] The resulting fluorescent signal was normalised to cell density and the normalised fluorescence was used as a direct measure of ER stress level in the cells.
A commercial library containing 50 080 small molecules was screened along with 5 dipeptide molecules from an academic collaboration and 208 extracts from a proprietary natural extract collection. Active compounds, with the potential to modulate the deleterious effects of TAU-P301L expression, were identified by their ability to decrease normalised fluorescence, without influencing growth. Growth was determined by measuring optical density (OD) of a culture.
DGI-TAUP301L cells were dispensed into 96-well plates on minimum medium containing 2% galactose to fully express the mutant protein, together with 10 μM candidate compound. All liquid handing steps were performed using a Janus Automated Workstation (Perkin Elmer). Plates were incubated for 2 days at 30° C. under shaking in a Liconic STX40 Automated Incubator. Growth and fluorescence were monitored with a Victor 3V microplate reader (PE). […]
(§1) DGI-TAUP301L cells were pre-grown on a mixture of 2% galactose until reaching early exponential phase (OD=1-2). […] Growth and fluorescence were monitored for 2 days at 30° C. under agitation. […]
as §1, §1, §1

Turning to `O=C(/C=C/c1ccccc1)NC(NC(=S)Nc1cccc2cccnc12)C(Cl)(Cl)Cl` (stereo not drawn) [salubrinal], where the note is “100 μM salubrinal”, the “reduction of ER stress signal” value is on record as approximately 50%.

With `C[N+](C)(C)CCO` [Choline, choline], the “reduction of ER stress” value (0.4 M choline) is recorded as 35%. With `C[S+](C)[O-]` [DMSO], the “reduction of ER stress” value (2% DMSO) turned out to be 35%.
